The source of these data is patent publication US9924717B2, “Molecules having pesticidal utility, and intermediates, compositions, and processes, related thereto” (Dow AgroSciences LLC, priority 2016, dated 2018).

Holding throughout (format): in vivo
In test [1] the test system is Beet Armyworm (Spodoptera exigua, LAPHEG) (BAW). The test is described as follows: Bioassays on Beet Armyworm (BAW), 128-well diet tray assay. The following applies: Table ABC rating, Beet Armyworm. On the procedure:
(§1) Example A: Bioassays on Beet Armyworm (Spodoptera exigua, LAPHEG) (“BAW”), Corn Earworm (Helicoverpa zea, Helize) (“CEW”), and Cabbage Looper (Trichoplusia ni, TRIPNI) (“CL”)
(§2) Certain molecules disclosed in this document were tested against BAW, CEW, and CL using procedures described in the following examples. In the reporting of the results, the “BAW, CEW, & CL Rating Table” was used (See Table Section).
Bioassays on BAW were conducted using a 128-well diet tray assay. one to five second instar BAW larvae were placed in each well (3 mL) of the diet tray that had been previously filled with 1 mL of artificial diet to which 50 μg/cm^2 of the test molecule (dissolved in 50 μL of 90:10 acetone-water mixture) had been applied (to each of eight wells) and then allowed to dry. Trays were covered with a clear self-adhesive cover and held at 25° C., 14:10 light-dark for five to seven days. Percent mortality was recorded for the larvae in each well; activity in the eight wells was then averaged. The results are indicated in the table entitled “Table ABC: Biological Results” (See Table Section).
(§3) Bioassays on BAW and CL were conducted according to the procedures outlined in Example A: Bioassays on Beet Armyworm (“BAW”) and Cabbage Looper (“CL”) using the indicated concentrations.

Test [2] relates to Cabbage Looper (Trichoplusia ni, TRIPNI) (CL). The test is described as follows: Bioassays on Cabbage Looper (CL), 128-well diet tray assay. As to conditions: Table ABC rating, Cabbage Looper. On the procedure: as §1, §2
Bioassays on CL were conducted using a 128-well diet tray assay. one to five second instar CL larvae were placed in each well (3 mL) of the diet tray that had been previously filled with 1 mL of artificial diet to which 50 μg/cm^2 of the test molecule (dissolved in 50 μL of 90:10 acetone-water mixture) had been applied (to each of eight wells) and then allowed to dry. Trays were covered with a clear self-adhesive cover and held at 25° C., 14:10 light-dark for five to seven days. Percent mortality was recorded for the larvae in each well; activity in the eight wells was then averaged. The results are indicated in the table entitled “Table ABC: Biological Results” (See Table Section).
as §3

Test [3] has as its system Yellow Fever Mosquito (Aedes aegypti, AEDSAE) (YFM). The test is described as follows: Bioassays on Yellow Fever Mosquito (YFM), 96-well plate larval assay. As to conditions: Table ABC rating. On the procedure:
Example C: Bioassays on Yellow Fever Mosquito (Aedes aegypti, AEDSAE) (“YFM”)
Certain molecules disclosed in this document were tested against YFM using procedures described in the following paragraph. In the reporting of the results, the “GPA & YFM Rating Table” was used (See Table Section).
Master plates containing 400 μg of a molecule dissolved in 100 μL of dimethyl sulfoxide (DMSO) (equivalent to a 4000 ppm solution) are used. A master plate of assembled molecules contains 15 μL per well. To this plate, 135 μL of a 90:10 water:acetone mixture is added to each well. A robot (Biomek® NXP Laboratory Automation Workstation) is programmed to dispense 15 μL aspirations from the master plate into an empty 96-well shallow plate (“daughter” plate). There are 6 reps (“daughter” plates) created per master. The created daughter plates are then immediately infested with YFM larvae.
The day before plates are to be treated, mosquito eggs are placed in Millipore water containing liver powder to begin hatching (4 g. into 400 mL). After the daughter plates are created using the robot, they are infested with 220 μL of the liver powder/larval mosquito mixture (about 1 day-old larvae). After plates are infested with mosquito larvae, a non-evaporative lid is used to cover the plate to reduce drying. Plates are held at room temperature for 3 days prior to grading. After 3 days, each well is observed and scored based on mortality. The results are indicated in the table entitled “Table ABC: Biological Results” (See Table Section).

In general, pest or weed control refers to the degree to which the test organism was suppressed or injured, in per cent. A lower pest or weed control goes with a weak effect. Consider `O=C(NC1CC1)c1ccc(/C(F)=C/C(c2cc(Br)cc(Br)c2)C(F)(F)F)cc1C(F)(F)F` (stereo not drawn) [F42, (Z)—N-Cyclopropyl-4-(3-(3,5-dibromophenyl)-1,4,4,4-tetrafluorobut-1-en-1-yl)-2-(trifluoromethyl)benzamide], for which the pest or weed control at 50 µg/cm2 in test [1] and in test [2] was 50 to 100% each time. Besides, the YFM entry in test [3] is “A (80-100)”.

`O=C(NC1CCC(F)(F)CC1)c1ccc(/C(F)=C/C(c2cc(Br)c(Cl)c(Br)c2)C(F)(F)F)cc1C(F)(F)F` (stereo not drawn) [F32, (Z)-4-(3-(3,5-Dibromo-4-chlorophenyl)-1,4,4,4-tetrafluorobut-1-en-1-yl)-N-(4,4-difluorocyclohexyl)-2-(trifluoromethyl)benzamide]: the pest or weed control at 50 µg/cm2 in test [1] and in test [2] was 50 to 100% each time. In test [3], the YFM result was “A (80-100)”.

Turning to `CN(CC(F)(F)F)C(=O)c1ccc(/C(F)=C/C(c2cc(Cl)c(Cl)c(Cl)c2)C(F)(F)F)cc1C(F)(F)F` (stereo not drawn) [F29, (Z)—N-Methyl-4-(1,4,4,4-tetrafluoro-3-(3,4,5-trichlorophenyl)but-1-en-1-yl)-N-(2,2,2-trifluoroethyl)-2-(trifluoromethyl)benzamide], the pest or weed control at 50 µg/cm2 in test [1] and in test [2] was 50 to 100% each time. Further, the YFM result in test [3] is given as “A (80-100)”.

Consider `CN(CC(F)(F)F)C(=S)c1ccc(/C(F)=C/C(c2cc(Cl)c(Cl)c(Cl)c2)C(F)(F)F)cc1C(F)(F)F` (stereo not drawn) [F34, (Z)—N-Methyl-4-(1,4,4,4-tetrafluoro-3-(3,4,5-trichlorophenyl)but-1-en-1-yl)-N-(2,2,2-trifluoroethyl)-2-(trifluoromethyl)benzothioamide], for which the pest or weed control at 50 µg/cm2 in test [1] and in test [2] was 50 to 100% each time. Further, the YFM result in test [3] is given as “B (More than 0-Less than 80)”.

Regarding `O=C(NCC(F)(F)F)c1ccc(/C(F)=C/C(c2cc(Cl)c(Cl)c(Cl)c2)C(F)(F)F)c2ccccc12` (stereo not drawn) [PF1, (Z)-4-(1,4,4,4-Tetrafluoro-3-(3,4,5-trichlorophenyl)but-1-en-1-yl)-N-(2,2,2-trifluoroethyl)-1-naphthamide], the pest or weed control at 50 µg/cm2 in test [1] and in test [2] was 50 to 100% throughout. In test [3], the YFM result was “A (80-100)”.

Turning to `O=C(NC1CC1)c1ccc(/C(F)=C/C(c2cc(Cl)cc(Cl)c2)C(F)(F)F)cc1C(F)(F)F` (stereo not drawn) [F23, (Z)—N-Cyclopropyl-4-(3-(3,5-dichlorophenyl)-1,4,4,4-tetrafluorobut-1-en-1-yl)-2-(trifluoromethyl)benzamide], the pest or weed control at 50 µg/cm2 in test [1] and in test [2] was 50 to 100% throughout. In addition, the YFM entry in test [3] is “A (80-100)”.

`O=C(NCc1ccccn1)c1ccc(/C(F)=C/C(c2cc(Cl)c(Cl)c(Cl)c2)C(F)(F)F)cc1C(F)(F)F` (stereo not drawn) [F51, (Z)—N-(Pyridin-2-ylmethyl)-4-(1,4,4,4-tetrafluoro-3-(3,4,5-trichlorophenyl)but-1-en-1-yl)-2-(trifluoromethyl)benzamide]: the pest or weed control at 50 µg/cm2 in test [1] and in test [2] was 50 to 100% in each case. In test [3], the YFM result was “A (80-100)”.

On to `O=C(NC1CCC(F)(F)CC1)c1ccc(/C(F)=C/C(c2cc(Br)cc(Br)c2)C(F)(F)F)cc1C(F)(F)F` (stereo not drawn) [F40, (Z)-4-(3-(3,5-Dibromophenyl)-1,4,4,4-tetrafluorobut-1-en-1-yl)-N-(4,4-difluorocyclohexyl)-2-(trifluoromethyl)benzamide], for which the pest or weed control at 50 µg/cm2 in test [1] and in test [2] was 50 to 100% in each case. Moreover, in test [3], the YFM entry was “A (80-100)”.

Regarding `O=C(NCc1ccc(Cl)nc1)c1ccc(/C(F)=C/C(c2cc(Cl)c(Cl)c(Cl)c2)C(F)(F)F)cc1C(F)(F)F` (stereo not drawn) [F11, (Z)—N-((6-Chloropyridin-3-yl)methyl)-4-(1,4,4,4-tetrafluoro-3-(3,4,5-trichlorophenyl)but-1-en-1-yl)-2-(trifluoromethyl)benzamide], the pest or weed control at 50 µg/cm2 in test [1] and in test [2] was 50 to 100% throughout. The YFM entry in test [3] was “A (80-100)”.

Regarding `O=C(NC1CCC(F)(F)CC1)c1ccc(/C(F)=C/C(c2ccc(Br)c(Br)c2)C(F)(F)F)cc1C(F)(F)F` (stereo not drawn) [F44, (Z)-4-(3-(3,4-Dibromophenyl)-1,4,4,4-tetrafluorobut-1-en-1-yl)-N-(4,4-difluorocyclohexyl)-2-(trifluoromethyl)benzamide], the pest or weed control at 50 µg/cm2 in test [1] and in test [2] was 50 to 100% each time. Moreover, the YFM entry in test [3] is reported as “A (80-100)”.

As to `O=C(NC1CCC(F)(F)CC1)c1ccc(/C(F)=C/C(c2ccc(Cl)c(Cl)c2)C(F)(F)F)cc1C(F)(F)F` (stereo not drawn) [F24, (Z)-4-(3-(3,4-Dichlorophenyl)-1,4,4,4-tetrafluorobut-1-en-1-yl)-N-(4,4-difluorocyclohexyl)-2-(trifluoromethyl)benzamide], the pest or weed control at 50 µg/cm2 in test [1] and in test [2] was 50 to 100% each time. For the same compound, the YFM entry in test [3] was “A (80-100)”.

On to `CC(NC(=O)c1ccc(/C(F)=C/C(c2cc(Cl)c(F)c(Cl)c2)C(F)(F)F)cc1C(F)(F)F)C(F)(F)F` (stereo not drawn) [F27, (Z)-4-(3-(3,5-Dichloro-4-fluorophenyl)-1,4,4,4-tetrafluorobut-1-en-1-yl)-2-(trifluoromethyl)-N-(1,1,1-trifluoropropan-2-yl)benzamide], for which the pest or weed control at 50 µg/cm2 in test [1] and in test [2] was 50 to 100% throughout. In addition, the YFM result in test [3] is recorded as “A (80-100)”.

With `CC(NC(=O)c1ccc(/C(F)=C/C(c2ccc(Br)c(Br)c2)C(F)(F)F)cc1C(F)(F)F)C(F)(F)F` (stereo not drawn) [F45, 4-((Z)-3-(3,4-Dibromophenyl)-1,4,4,4-tetrafluorobut-1-en-1-yl)-2-(trifluoromethyl)-N-(1,1,1-trifluoropropan-2-yl)benzamide], the pest or weed control at 50 µg/cm2 in test [1] and in test [2] was 50 to 100% in each case. Further, the YFM entry in test [3] is given as “B (More than 0-Less than 80)”.

Regarding `O=C(NC1CC1)c1ccc(/C(F)=C/C(c2ccc(Br)c(Br)c2)C(F)(F)F)cc1C(F)(F)F` (stereo not drawn) [F46, (Z)—N-Cyclopropyl-4-(3-(3,4-dibromophenyl)-1,4,4,4-tetrafluorobut-1-en-1-yl)-2-(trifluoromethyl)benzamide], the pest or weed control at 50 µg/cm2 in test [1] and in test [2] was 50 to 100% each time. In addition, the YFM entry in test [3] is given as “A (80-100)”.

Turning to `Cc1cc(C(/C=C(\F)c2ccc(C(=O)NC3CCC(F)(F)CC3)c(C(F)(F)F)c2)C(F)(F)F)cc(C)c1Cl` (stereo not drawn) [F31, (Z)-4-(3-(4-Chloro-3,5-dimethylphenyl)-1,4,4,4-tetrafluorobut-1-en-1-yl)-N-(4,4difluorocyclohexyl)-2-(trifluoromethyl)benzamide], the pest or weed control at 50 µg/cm2 in test [1] and in test [2] was 50 to 100% throughout. In test [3], the YFM entry was “A (80-100)”.

For `O=C(Nc1ccc(Cl)nc1)c1ccc(/C(F)=C/C(c2cc(Cl)c(Cl)c(Cl)c2)C(F)(F)F)cc1C(F)(F)F` (stereo not drawn) [F26], the pest or weed control at 50 µg/cm2 in test [1] and in test [2] was 50 to 100% throughout. For the same compound, the YFM entry in test [3] is reported as “A (80-100)”.

With `CC(NC(=O)c1ccc(/C(F)=C/C(c2cc(Cl)cc(Cl)c2)C(F)(F)F)cc1C(F)(F)F)C(F)(F)F` (stereo not drawn) [F15, 4-((Z)-3-(3,5-Dichlorophenyl)-1,4,4,4-tetrafluorobut-1-en-1-yl)-2-(trifluoromethyl)-N-(1,1,1-trifluoropropan-2-yl)benzamide], the pest or weed control at 50 µg/cm2 in test [1] and in test [2] was 50 to 100% each time. In test [3], the YFM result is on record as “A (80-100)”.
